# Measurements: patent US11129867B2, “Method of treating cancer cells” (priority 2017, dated 2021)
# Where a SMILES comes first, the peptide text is derived from it. The star is where a group is joined. X1 = CN(C)c1ccc2c(-c3ccc(C(=O)*)cc3C(=O)[O-])c3ccc(=[N+](C)C)cc-3oc2c1
# Columns and labels:
# [1] = system: Poly (ADP-ribose) polymerase (PARP); experiment: Western blotting of PARP cleavage; assay type: cell-based, human
# Procedure: Protein expression of Poly (ADP-ribose) polymerase (PARP) were examined in Ca922 cells treated with 25 μM TMR-GBP for 6 hours.
# (§1) Protein lysate of Ca922 cells treated with TMR-GBP 25 μM were blotted with antibodies against Caspase-3, Caspase-7, Caspase-9 and Poly (ADP-ribose) polymerase (PARP). Representative blots are shown.
# (§2) Western Blotting Analysis
# (§3) Cells were harvested by trypsion or scratch and lysed in RIPA buffer (50 mM Tris-HCl, pH 7.4, 150 mM NaCl, 0.1% SDS, 0.5% Sodium deoxycholate, 1% NP-40) supplemented with 1× protease inhibitor cocktail. Sample was incubated on ice for 30 minutes and scraped every 10 minutes. Centrifuge at 13,000 rpm at 4° C. for 15 minutes, then collect supernatant for analysis. Protein concentration was determined by Bradford assay. First, 5× Bradford assay dye reagent was diluted into […], and mixture with RIPA (as standard) or samples. Concentration was obtained by spectrophotometer measurement. Equal volume of 2× laemmli buffer containing β-ME was added into protein lysate for goal concentration. Protein samples were boiled at 100° C. for 15 minutes and resolved by 10% SDS-PAGE gel or 4%-15% gradient gel. […] Washing the membrane three times with 1×PBST for every 5 minutes, protein band was detected by modified ECL (ddH2O, […] Tris pH8.0, 200 μM p-coumaric acid, 1.25 mM luminal, 0.001% H2O2) with ImageQuant LAS 4000 digital imaging system.
# H2170 = experiment: WST-8 cell viability assay, H2170; assay type: cell-based; settings: H2170 (lung cancer), different concentrations, 48 hours, FIG. 5
# Procedure: (§4) Human oral squamous cell carcinoma (OSCC) cell lines, Ca922, OSC20, OECM-1, OC3, CGHNC9, HSC3, plus A549, MDA-MB-231, MCF7, Huh7, HeLa-Kyoto, Detroit 562, H520, H2170, and 293T cells were used in this study. Ca922, CGHNC9, MDA-MB-231, MCF7, Huh7, HeLa-Kyoto, Detroit 562, and 293T cells were all cultured in high-glucose Dulbecco's Modified Eagle Medium (DMEM). OSC20 and HSC3 cells were cultured in Dulbecco's Modified of Eagle's Medium/Ham's F-12 50/50 Mix (1:1). OECM-1, A549, H520, and H2170 cells were grown in RPMI-1640 medium. All culture media were supplemented with 10% fetal bovine serum (FBS) and 1% penicillin-streptomycin. OC3 cells were cultured in 1:1 DMEM/KSFM (keratinocyte serum-free medium) with supplied supplement of Bovine pituitary extract (BPE) and epidermal growth factor (EGF) followed by instruction. All the cells in this study were maintained at 37° C. in humidified atmosphere containing 5% CO2.
# (§5) WST-8 [2-(2-methoxy-4-nitrophenyl)-3-(4-nitrophenyl)-5-(2,4-disulfophenyl)-2H-tetrazolium, monosodium salt] cell viability assay
# (§6) Cells were seeded into 96 well plate and incubated at 37° C. overnight. Endpoint measures of TMR-GBP or drugs were performed by water soluble tetrazolium salt (WST-8)-based colorimetric assay in triplicate which measures the metabolic conversion of WST-8 into formazan by mitochondrial dehydrogenases present in viable cells. The amount of formazan produced is proportional to the number of live cells and is expressed as cellular viability. When time was up, media were removed and supplemented with WST-8 cell viability reagent-contained cell culture medium (1:10) and incubated at 37° C. for 2 hours. Besides, three wells with WST-8-dissolved medium only (without cells) were reserved as a background control. Cell viability was measured at the absorbance of 450/655 nm wavelength by ELISA reader.
# H520 = experiment: WST-8 cell viability assay, H520; assay type: cell-based; settings: H520 (lung cancer), different concentrations, 48 hours, FIG. 5
# Procedure: as §4, §5, §6
# phospho-γH2Ax = experiment: Immunofluorescence staining of phospho-γH2Ax (DNA damage); assay type: cell-based, human
# Procedure: Representative images showing DAPI-labelled nucleus (shown in blue) co-stained with phospho-γH2Ax (green). Ca922 cells were treated with 25 μM TMR-GBP for 12 or 24 hours followed by immunofluorescence staining. Foci in the nucleus indicated damaged DNA. Scale bar indicates 10 μm.
# At least 20 cells were counted in each category. Bars indicate standard deviations from three independent experiments.
# Immunofluorescence Staining
# Cells grown on coverslips were washed with 1×PBS and fixed by PTEMF buffer (20 mM PIPES pH 6.8, 0.2% Triton X-100, 10 mM EGTA, 1 mM MgCl2, and 4% formaldehyde) or 4% paraformaldehyde for 10 minutes at room temperature. Then, fixation buffer was replaced with 1×PBST and the cells were washed with 1×PBST for another 10 minutes at room temperature. Coverslips were washed with 1×PBST twice gently and incubated with primary antibodies at room temperature for 1 hour. Next, washed with PBST for three times (2, 2, 5 minutes). Afterwards, coverslips were cultured in Alex Fluor-conjugated secondary antibodies and DAPI at room temperature for 30 minutes, washed three times (2, 2, 5 minutes), rinsed with ddH2O and mounted with mounting medium. Antibodies concentration used in this analysis is 1:1000 dilution. Images were acquired with specific fluorescence wavelength by Leica DMI6000 inverted microscope equipped with HCX PL FL 100λ/NA1.40 objective and EMCCD camera. All images were analyzed by MetaMorph software.
# Caspase-9 = experiment: Western blotting of Caspase-9; assay type: cell-based, human; settings: Ca922, 25 μM, FIG. 11B
# Procedure: as §1, §2
# as §3, with “gel. Then, transfer to PVDF membrane by 100V or 110V voltage for 1 hour.” for “gel.”
# A549 = experiment: WST-8 cell viability assay, A549; assay type: cell-based; settings: A549 (lung cancer), different concentrations, 48 hours, FIG. 3
# Procedure: as §4, §5
# Cells were seeded into 96 well plate and incubated at 37° C. overnight. […] The amount of formazan produced is proportional to the number of live cells and is expressed as cellular viability. […] Cell viability was measured at the absorbance of 450/655 nm wavelength by ELISA reader.
smiles,measurement,setting,value
CN(C)c1ccc2c(-c3ccc(C(=O)N[C@@H](CC(N)=O)C(=O)N[C@@H](Cc4ccc(O)cc4)C(=O)N[C@@H](CCCNC(=N)N)C(=O)N[C@@H](Cc4c[nH]c5ccccc45)C(=O)N[C@@H](CCCNC(=N)N)C(=O)N[C@@H](CS)C(=O)N[C@@H](CCCCN)C(=O)N[C@@H](CC(N)=O)C(=O)N[C@@H](CCC(N)=O)C(=O)N[C@@H](CC(N)=O)C(=O)O)cc3C(=O)[O-])c3ccc(=[N+](C)C)cc-3oc2c1 [TMR-GBP] (X1-NYRWRCKNQN-OH; N-terminus and C-terminus assumed),PARP cleavage,"[1]; Ca922, 25 μM, 6 hours, FIG. 11A",induced PARP cleavage
same,PARP cleavage after calpain inhibitor,"[1]; Ca922, calpain inhibitor pretreated 30 minutes before TMR-GBP, FIG. 11D",still induced PARP cleavage
same,cytotoxicity (cell viability),H2170,could induce cytotoxicity
same,cytotoxicity (cell viability),H520,could induce cytotoxicity
same,phospho-γH2Ax foci in the nucleus (DNA damage),"phospho-γH2Ax; Ca922, 25 μM TMR-GBP, 12 or 24 hours, FIG. 10A",many foci were observed accumulating in the nucleus
same,increase of nuclear γH2Ax intensity,"phospho-γH2Ax; Ca922, 25 μM, over control cells or cells co-treated with TMR-GBP and NAC, FIG. 10B",4 folds
same,"phospho-γH2Ax signal, co-treated with NAC","phospho-γH2Ax; Ca922, co-treated with TMR-GBP and NAC, FIG. 10A",hardly detected any phospho-γH2Ax signal
same,activation of caspase-9,Caspase-9,did not activate
same,cell viability,A549,not markedly affected
